The values below come from EPA's ToxValDB 9.5 (doi:10.2903/j.efsa.2009.189r).

One data set concerns Rattus norvegicus. Particulars: for LD50: acute, oral, mortality; for NOEL: chronic.
The next data set concerns Chrysoperla externa. The experiment in a line: LR50; higher = less toxic. As to conditions: not reported; mortality.
A further data set relates to Pimephales promelas. As to conditions: chronic/long-term; duration: 359 days; mortality.
In another data set the test system is Anas platyrhynchos. Particulars: acute; oral; unspecified; mortality.
The next data set has as its system Folsomia candida. Particulars: chronic/long-term.
For the next data set, the system named is Lepomis macrochirus. As to conditions: acute; duration: 96 hours; mortality.
The next data set deals with Colinus virginianus. Particulars: for NOEC: reproduction developmental.
In the next data set the test system is Mus musculus. Particulars: acute; oral; mortality.
In a further data set the test system is Apis mellifera. As to conditions: acute; duration: 48 hours; oral; unspecified; mortality.
Another data set has as its system Tagia sp. Particulars: acute; duration: 14 days; mortality.
Another data set concerns Canidae. As to conditions: chronic; duration: 1 years; oral; Dog Other; organ weight.

With `NC(=O)c1c(F)cccc1F` [Benzamide, 2,6-difluoro-], the LD50 with Rattus norvegicus was determined as 2060 mg/kg-day.

The term NOAEL denotes the highest tested level that showed no adverse finding. For the compound `O=C(NC(=O)c1c(F)cccc1F)Nc1cc(Cl)c(OC(F)(F)C(F)C(F)(F)F)cc1Cl` (configuration not stated) [Lufenuron], the LR50 with Chrysoperla externa worked out at 0.4 g/ha. Moreover, the LD50 with Rattus norvegicus was greater than 2000 mg/kg-day; in the data set on Anas platyrhynchos, 2000 mg/kg; in the data set on Colinus virginianus (acute, oral, mortality), 2000 mg/kg; with Mus musculus, greater than 2000 mg/kg-day; with Apis mellifera, greater than 197 µg/piece. The NOEL in the data set with Rattus norvegicus (F) was 10.9 mg/kg-day; in the data set on Rattus norvegicus (M), 8.3 mg/kg-day. Further, the NOEC with Pimephales promelas stood at 0.02 mg/L; in the data set on Folsomia candida, 0.2 mg/kg; with Colinus virginianus, 19.7 mg/kg-day; in the data set on Colinus virginianus (duration: 90 days), 20000 mg/kg-day. Moreover, the LC50 in the data set with Lepomis macrochirus is greater than 29 mg/L; in the data set with Colinus virginianus (acute, oral, diet, mortality) it was 966 mg/kg-day; in the data set with Tagia sp., greater than 1000 mg/kg. In the data set on Canidae, this compound registered an NOAEL of 1.5 mg/kg-day.
